Source: PMC10831276, “A viral insulin-like peptide inhibits IGF-1 receptor phosphorylation and regulates IGF1R gene expression” (Molecular Metabolism, 2024)
Bridge positions count the residues as written; N and C are the ends. Ends that are not written are not given here. I, II: the chains in the order shown.

Legend:
R+ cells = test: BrdU proliferation assay of transfected R+ cells; type: cell-based, mouse; conditions: 10 nM IGF-1 for 24 h; BrdU for last 6 h
Protocol: R^+ cells (described in 2.4) were seeded into 96-well plates so that they reached ∼50 % confluency after overnight incubation. […] Three hours post transfection, Opti-MEM medium was exchanged for regular culture medium. 24 h post transfection, cells were washed once with PBS and starved in serum free culture medium. After 24 h of starvation, cells were stimulated with IGF-1 (diluted in serum free medium) to reach final concentration of 10 nM IGF-1 per well for another 24 h period (serum free medium only was added to the non-stimulated wells). To determine the rate of proliferation in each well, BrdU Cell Proliferation Assay (Sigma–Aldrich, #QIA58) was used. Manufacturer's instructions were followed, with the BrdU probe being added for the last 6 h of the 24 h stimulation with IGF-1. Absorbance at dual wavelengths of 450–540 nm was measured using a spectrophotometric plate reader. The experiment was repeated at least three times and for each biological replicate, results were expressed as relative change compared to non-stimulated cells transfected with empty vector. Statistical analysis was performed using paired two-tailed Student's t-test.

IGF1R gene expression = IGF1R gene expression (RT-qPCR) in R+ cells after repeated stimulation with synthetic ligand; type: cell-based, human; conditions: 100 nM ligand every 3 h over 24 h, normalised to β-actin, compared to basal, n = 3
Protocol: To assess the potential impact of external VILP exposure on IGF1R gene expression, we employed R^+ cells, seeding 30 × 10^4 cells per well. Following a 24-hour incubation period, cells were washed twice with PBS and were subsequently serum-starved for 4 h before sequential stimulation with various ligands (scMFRV-VILP, dcMFRV-VILP, and IGF-1). The cells were stimulated with 100 nM of each ligand every 3 h over a 24-hour period. Post the final stimulation, the cells were snap-frozen and stored at −80 °C.
Subsequently, the lysates were transferred to microtubes and chloroform in ratio 5:1 (Tri Reagent: chloroform) was added. The mixture was vortexed for 15s, incubated at RT for 5 min and centrifuged for 15 min at 12000g, 4 °C. The upper aqueus phase was transferred to new tubes, 100 % ethanol was added to give a 1:1 volumetric ratio and subsequently the Direct-zol RNA Miniprep Kit (Zymo Research) was used according to the manufacturer's instructions. cDNA synthesis was performed using Maxima™ H Minus cDNA Syntheis Master Mix (ThermoFisher Scientific) according to manufacturer's instructions. The qPCR was performed using Power SYBR® Green PCR Master Mix (Applied Biosystems) according to manufacturer's instructions on QuantStudio 3 (Applied Biosystems). Statistical analysis was performed using ordinary one-way ANOVA followed by Tukey's multiple comparison test.

C57BL/6 J mice = test: Insulin tolerance test; type: in vivo, mouse
Protocol: All animal studies presented in this study complied with the regulations and ethics guidelines of the NIH and were approved by the Boston College Institutional Animal Care and Use Committee. Insulin tolerance testing was performed on 12 to 17-week-old male C57BL/6 J mice (Jackson Laboratory). Mice were grouped according to their weight before experiment. After 6-hour starvation, mice were injected i.p. with insulin (Humulin, 6 nmol/kg, corresponds to 1.0 U/kg, 1x) (Eli Lilly), scMFRV-VILP (6 nmol/kg, 1x and 60 nmol/kg, 10x), dcMFRV-VILP (60 nmol/kg, 10x), dcLCDV-Sa-VILP (0.3 μmol/kg, 50x), and saline as a control (n = 4–11 per condition). Tail-vein blood glucose was measured until 3 h post-injection using an Infinity glucometer (US Diagnostic Inc.). Statistical analysis was done using Mixed effects analysis - Dunnett's multiple comparisons test.

human IR-A [1] = target: T1, human IR-A (Homo sapiens, UniProt P06213); test: Whole-cell binding competition assay with 125I-insulin on IM-9 lymphoblasts; set-up: human IM-9 lymphoblasts, that express IR-A exclusively; host or cells: human IM-9 lymphoblasts (whole cells)
Protocol: (§1) For receptor binding studies, human IM-9 lymphoblasts, that express IR-A exclusively, and R^−/IR-B and R^+ murine embryonic fibroblasts were used for a whole-cell receptor-binding assay. Receptor binding assays on IR-A were perfomed accoding to Morcavallo et al. [24]and binding assays on IR-B and IGF1R were performed according to Kosinova et al.. […] Human ^125I-insulin was prepared as described by Asai et al. and human ^125I-IGF-1 was prepared as described in Kertisova et al..

human IR-A [2] = target: T1, human IR-A; test: cell-based; set-up: human IM-9 lymphoblasts, that express IR-A exclusively
Protocol: (§2) Insulin or IGF-1 receptor phosphorylation was measured as described in [13]. Briefly, HEK293 cells overexpressing human IR-A, IR-B, or IGF-1R were plated in 96-well tissue culture plates and cultured for 16–20 h at 37 °C, 5 % CO2, and 90 % humidity. […] For antagonism studies, test peptides were pre-mixed with 10 nM IGF-1. After 15 min incubation at 37 °C in humidified atmosphere with 5 % CO2, the cells were fixed with 5 % paraformaldehyde for 20 min at room temperature, washed twice with PBS (pH 7.4) and blocked with 2 % BSA in PBS for 1 h. The plate was washed three times, filled with anti-phospho-IR/IGF1R (Tyr1158) antibody (Millipore) and incubated for 3 h at room temperature, after which the plate was washed four times and filled with goat anti-rabbit secondary antibody (#A16110, ThermoFisher). Following 30 min incubation and another four washes, 0.1 mL of TMB One Solution substrate (#00-2023; Invitrogen) was added to each well. Color development was stopped 10 min later by adding 0.05 mL 1 M HCl.

human IGF1R [3] = target: T2, human IGF1R (Homo sapiens, UniProt P08069); test: Whole-cell binding competition assay with 125I-IGF-1 on R+ fibroblasts; set-up: expressed in transfected cells; host or cells: murine embryonic fibroblasts from IGF1R knockout mice, stably transfected with IGF1R (R+ cells); conditions: competition with 125I-IGF-1, R+ cells; mean ± S.D. (n), n ≥ 3; measurement series #; SD
Protocol: as §1
Target sequence in this assay (P08069 31-736): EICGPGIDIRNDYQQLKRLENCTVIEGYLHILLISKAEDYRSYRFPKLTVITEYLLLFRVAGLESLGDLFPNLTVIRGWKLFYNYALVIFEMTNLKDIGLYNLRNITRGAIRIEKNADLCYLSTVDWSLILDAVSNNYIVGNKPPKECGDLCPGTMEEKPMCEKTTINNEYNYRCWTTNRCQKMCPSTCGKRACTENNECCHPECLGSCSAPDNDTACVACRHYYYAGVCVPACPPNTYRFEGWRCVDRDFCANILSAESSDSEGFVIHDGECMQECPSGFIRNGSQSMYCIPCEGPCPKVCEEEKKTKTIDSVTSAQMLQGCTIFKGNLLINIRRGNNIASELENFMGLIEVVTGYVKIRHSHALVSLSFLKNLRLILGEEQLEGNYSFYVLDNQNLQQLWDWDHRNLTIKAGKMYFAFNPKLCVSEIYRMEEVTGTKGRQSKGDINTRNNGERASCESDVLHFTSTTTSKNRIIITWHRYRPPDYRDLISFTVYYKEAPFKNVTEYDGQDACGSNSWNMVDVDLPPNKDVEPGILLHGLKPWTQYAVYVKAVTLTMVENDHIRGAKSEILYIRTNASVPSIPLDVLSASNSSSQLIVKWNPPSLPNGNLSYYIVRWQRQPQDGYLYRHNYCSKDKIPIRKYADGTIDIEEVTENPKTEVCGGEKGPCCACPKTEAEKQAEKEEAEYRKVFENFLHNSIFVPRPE
Target sequence in this assay (P08069 741-1367): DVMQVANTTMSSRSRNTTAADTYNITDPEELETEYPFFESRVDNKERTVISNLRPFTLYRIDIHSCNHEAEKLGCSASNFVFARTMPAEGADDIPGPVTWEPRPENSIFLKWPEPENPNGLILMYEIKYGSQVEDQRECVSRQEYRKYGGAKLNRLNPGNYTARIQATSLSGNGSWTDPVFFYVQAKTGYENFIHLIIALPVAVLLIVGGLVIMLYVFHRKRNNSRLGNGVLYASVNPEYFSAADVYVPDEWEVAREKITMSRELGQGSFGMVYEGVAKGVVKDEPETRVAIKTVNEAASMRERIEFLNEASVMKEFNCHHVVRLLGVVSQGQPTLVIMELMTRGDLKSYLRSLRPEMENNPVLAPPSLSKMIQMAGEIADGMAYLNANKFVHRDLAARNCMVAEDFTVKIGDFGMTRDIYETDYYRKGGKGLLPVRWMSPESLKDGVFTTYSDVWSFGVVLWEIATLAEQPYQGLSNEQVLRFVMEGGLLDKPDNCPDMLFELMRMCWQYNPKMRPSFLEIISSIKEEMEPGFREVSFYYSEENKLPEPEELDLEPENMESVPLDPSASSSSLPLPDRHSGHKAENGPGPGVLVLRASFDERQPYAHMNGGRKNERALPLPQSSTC

human IGF1R [4] = target: T2, human IGF1R; test: cell-based; set-up: expressed in transfected cells; host or cells: HEK293 cells overexpressing human IGF-1R
Protocol: as §2
Target sequence in this assay (P08069 741-1367): as above
Target sequence in this assay (P08069 31-736): as the sequence (P08069 31-736) above

human IR-B = target: T3, human IR-B (Homo sapiens, UniProt P06213); test: Whole-cell binding competition assay with 125I-insulin on R-/IR-B fibroblasts; conditions: competition with 125I-insulin, R-/IR-B cells; mean ± S.D. (n), n ≥ 3; measurement series #; SD
T3 construct: expressed in transfected cells; host or cells: murine embryonic fibroblasts from IGF1R knockout mice, stably transfected with IR-B (R-/IR-B cells)
Protocol: as §1

IR-B = test: Insulin/IGF signaling via IR-B in R-/IR-B cells (western blot); type: cell-based, human; conditions: 0.1-500 nM, 30 min
Protocol: For receptor phosphorylation and downstream signaling experiments, R^−/IR-A, R^−/IR-B and R^+ cells (described in 2.4) were used to explore signaling properties of ligands via specific receptors. Cells were seeded into 24-well plates (10^5 cells per well) in 300 μl of culture medium (described above) and grown overnight. Afterwards, cells were washed twice with PBS and starved in serum-free culture medium for 4 h. After the starvation, cells were washed with pure DMEM medium and incubated with ligand diluted in pure DMEM medium (0, 0.1, 1, 10, 100, 250 and 500 nM) in 37 °C for 30 min. For co-incubation of a VILP with 10 nM insulin/IGF-1, increasing concentrations of the VILP were pre-mixed with insulin or IGF-1 prior stimulation of cells. The reaction was terminated by washing the cells with ice-cold PBS (HyClone) followed by snap freezing in liquid nitrogene. […] Protein concentration in each sample was evaluated using BCA Assay (Thermo Fisher Scientific). Samples were further diluted using sample buffer for SDS-PAGE (final concentration 62.5 mM Tris, 2 % SDS (w/v), 10 % glycerol (v/v). 0.01 % bromphenol blue (w/v), 0.1 M DTT (w/v), pH 6.8 (HCl)) and routinely analyzed using SDS-PAGE and immunoblotting. […] Western blots were quantified using Image Lab 6.0.1 (Bio-Rad). […]

T1 sequence (P06213 763-1382): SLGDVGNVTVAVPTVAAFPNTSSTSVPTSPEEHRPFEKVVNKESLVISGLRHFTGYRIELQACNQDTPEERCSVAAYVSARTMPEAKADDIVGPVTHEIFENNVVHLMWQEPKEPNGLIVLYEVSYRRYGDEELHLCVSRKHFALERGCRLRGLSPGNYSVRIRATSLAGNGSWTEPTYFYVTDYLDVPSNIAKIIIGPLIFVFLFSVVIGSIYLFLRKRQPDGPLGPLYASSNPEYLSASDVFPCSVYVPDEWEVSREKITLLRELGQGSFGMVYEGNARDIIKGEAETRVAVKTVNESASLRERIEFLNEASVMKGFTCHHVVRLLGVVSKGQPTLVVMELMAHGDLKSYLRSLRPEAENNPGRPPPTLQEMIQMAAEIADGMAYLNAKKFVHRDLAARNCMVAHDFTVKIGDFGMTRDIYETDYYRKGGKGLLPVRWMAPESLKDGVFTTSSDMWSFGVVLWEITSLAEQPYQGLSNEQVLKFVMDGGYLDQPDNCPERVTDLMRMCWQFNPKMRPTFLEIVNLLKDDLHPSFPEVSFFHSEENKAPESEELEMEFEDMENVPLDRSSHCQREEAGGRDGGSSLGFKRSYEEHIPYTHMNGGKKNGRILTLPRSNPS
T1 sequence (P06213 other isoform, or with tags, fused parts or gaps): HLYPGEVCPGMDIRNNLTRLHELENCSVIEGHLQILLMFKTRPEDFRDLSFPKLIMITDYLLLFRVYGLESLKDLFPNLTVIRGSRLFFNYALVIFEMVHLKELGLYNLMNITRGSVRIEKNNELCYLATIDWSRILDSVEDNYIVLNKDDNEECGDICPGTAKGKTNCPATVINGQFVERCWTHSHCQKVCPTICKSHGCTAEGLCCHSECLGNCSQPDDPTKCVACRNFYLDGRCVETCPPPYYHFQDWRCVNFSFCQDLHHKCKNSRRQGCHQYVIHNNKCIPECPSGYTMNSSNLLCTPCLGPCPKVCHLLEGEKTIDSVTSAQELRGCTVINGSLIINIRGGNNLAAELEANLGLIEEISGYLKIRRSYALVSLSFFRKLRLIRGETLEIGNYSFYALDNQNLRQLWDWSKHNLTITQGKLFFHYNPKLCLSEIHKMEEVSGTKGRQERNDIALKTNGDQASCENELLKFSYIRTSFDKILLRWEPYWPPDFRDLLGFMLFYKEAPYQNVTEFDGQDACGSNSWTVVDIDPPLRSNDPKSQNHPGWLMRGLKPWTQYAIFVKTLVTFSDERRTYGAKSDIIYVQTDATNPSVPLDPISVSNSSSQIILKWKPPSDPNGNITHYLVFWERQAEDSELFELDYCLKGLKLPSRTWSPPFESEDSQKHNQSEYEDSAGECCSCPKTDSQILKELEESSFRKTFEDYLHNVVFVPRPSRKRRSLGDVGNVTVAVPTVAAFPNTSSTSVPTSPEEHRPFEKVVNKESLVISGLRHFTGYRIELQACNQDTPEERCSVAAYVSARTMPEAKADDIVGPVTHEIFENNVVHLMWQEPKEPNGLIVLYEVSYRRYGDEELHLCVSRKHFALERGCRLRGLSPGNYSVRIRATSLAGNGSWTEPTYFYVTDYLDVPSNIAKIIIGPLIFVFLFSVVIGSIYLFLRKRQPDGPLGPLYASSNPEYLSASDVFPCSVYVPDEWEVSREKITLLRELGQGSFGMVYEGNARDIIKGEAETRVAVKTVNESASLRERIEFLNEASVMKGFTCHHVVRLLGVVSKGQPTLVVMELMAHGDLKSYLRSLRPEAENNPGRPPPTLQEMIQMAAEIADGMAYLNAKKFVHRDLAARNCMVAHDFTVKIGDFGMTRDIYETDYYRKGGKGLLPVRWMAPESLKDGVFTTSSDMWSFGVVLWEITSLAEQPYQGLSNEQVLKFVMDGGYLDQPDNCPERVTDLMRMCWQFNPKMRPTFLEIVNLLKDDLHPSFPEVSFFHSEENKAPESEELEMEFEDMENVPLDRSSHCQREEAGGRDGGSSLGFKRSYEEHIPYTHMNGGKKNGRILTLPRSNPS
T3 sequence (P06213 28-758 limits assumed): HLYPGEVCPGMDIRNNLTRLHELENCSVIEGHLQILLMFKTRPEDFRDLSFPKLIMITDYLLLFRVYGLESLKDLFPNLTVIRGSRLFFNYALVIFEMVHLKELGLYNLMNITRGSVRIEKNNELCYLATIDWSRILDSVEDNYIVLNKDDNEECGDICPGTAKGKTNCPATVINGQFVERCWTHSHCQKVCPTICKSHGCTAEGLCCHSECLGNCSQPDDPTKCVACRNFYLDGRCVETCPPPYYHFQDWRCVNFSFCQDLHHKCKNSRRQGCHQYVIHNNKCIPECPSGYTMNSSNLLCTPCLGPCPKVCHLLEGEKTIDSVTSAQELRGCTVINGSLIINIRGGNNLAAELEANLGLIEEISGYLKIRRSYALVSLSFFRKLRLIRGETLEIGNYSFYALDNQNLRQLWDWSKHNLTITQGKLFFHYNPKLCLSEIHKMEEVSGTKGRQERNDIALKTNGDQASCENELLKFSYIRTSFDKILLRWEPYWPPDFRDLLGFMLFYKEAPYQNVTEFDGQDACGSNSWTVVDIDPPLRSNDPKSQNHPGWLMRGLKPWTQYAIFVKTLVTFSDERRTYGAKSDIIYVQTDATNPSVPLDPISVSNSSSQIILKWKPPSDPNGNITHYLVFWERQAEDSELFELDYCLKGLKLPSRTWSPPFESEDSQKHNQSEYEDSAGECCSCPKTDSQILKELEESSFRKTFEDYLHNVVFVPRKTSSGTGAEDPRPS
T3 sequence (P06213 763-1382 limits assumed): as the sequence (P06213 763-1382) above

Substance: Human IGF-1: human insulin like growth factor-1, supplied by Merck [reference compound]
- increase in cell proliferation in cells transfected with empty vector (R+ cells): 2.2 fold
- decrease of IGF-1R gene expression (IGF1R gene expression): neither dcMFRV-VILP nor IGF-1 demonstrated a similar effect

Substance: Human insulin: human insulin, supplied by Merck; Humulin (Eli Lilly) in the insulin tolerance test [reference compound]
- maximum decrease in blood glucose levels (C57BL/6 J mice; 6 nmol/kg (1x) i.p., male C57BL/6 J mice, 6 h starved): ~60%

Substance: I: ILAQTLCGSELVDALELVCGEYGGIYRPPK / II: KIVDVCCTTKGCNYMDLKQYCN (disulfide I:7-II:7, I:19-II:21, II:6-II:12) [dcLCDV-Sa]
- Kd (human IR-A [1]; competition with 125I-insulin, IM-9 cells, mean ± S.D. (n), n ≥ 3 binding curves each in duplicate, measurement series #, SD): 0.487 ± 0.287 µM
- EC50 (human IR-A [2]): 0.198 µM
- Kd (human IGF1R [3]): 0.639 ± 0.453 µM
- EC50 (human IGF1R [4]): 0.282 µM
- Kd (human IR-B): 0.994 ± 0.055 µM

Substance: I: VLTDKLCGKDLVDALLLVCGEKGVYSPKMG / II: GIADVCCTSANGCDLNFLEKFCKT (disulfide I:7-II:7, I:19-II:22, II:6-II:13) [dcMFRV]
- glucose-lowering effect (C57BL/6 J mice; 60 nmol/kg (10x) i.p., dcMFRV-VILP): comparable effect to scMFRV-VILP (1x)
- decrease of IGF-1R gene expression (IGF1R gene expression): neither dcMFRV-VILP nor IGF-1 demonstrated a similar effect
- affinity on IR-A, fold stronger than IGF-1 (human IR-A [1]; ratio of Kd values): 1.5 fold
- fold difference in IR-A affinity, dcMFRV-VILP higher than the sc form (human IR-A [1]; ratio of Kd values): about 3 fold
- maximum response of IR-B autophosphorylation compared to 10 nM insulin (IR-B): comparable maximum response
